Reference: ChEMBL document CHEMBL1201862, “PubChem BioAssay data set” (2004)
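Interpolation was linear, between the two tested concentrations surrounding the appropriate level; five concentrations were tested over 48 hours in 96-well plates. At the GI50, growth is halved.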 Active and inactive are the calls of the source. Rule as the data show it: active = GI50 up to about 1.1 µM and inactive = higher. Non-standard residues stand in square brackets, D forms with d. Residues, ends and D or L forms follow the SMILES beside them. *: point of attachment. Cbz = O=C(OCc1ccccc1)*; Boc = CC(C)(C)OC(=O)*; Aib = CC(C)(N)C(=O)O; OBn = c1ccc(CO*)cc1; OtBu = CC(C)(C)O*; βAla = NCCC(=O)O

Tests used:
Assay in all cases: inhibition of tumour cell growth, NCI panel, 48 h
BT-549 = system: BT-549
HT-29 = system: HT-29
Hs-578T = system: Hs-578T
MCF7 = system: MCF7
MDA-N = system: MDA-N
MOLT-4 = system: MOLT-4
NCI-H226 = system: NCI-H226
NCI-H460 = system: NCI-H460
NCI-H522 = system: NCI-H522
OVCAR-3 = system: OVCAR-3
OVCAR-4 = system: OVCAR-4
OVCAR-5 = system: OVCAR-5
OVCAR-8 = system: OVCAR-8
RXF 393 = system: RXF 393
SF-539 = system: SF-539
T47D = system: T47D
UACC-257 = system: UACC-257
UO-31 = system: UO-31
M14 = system: M14
SNB-19 = system: SNB-19

SMILES | GI50 (BT-549) | GI50 (HT-29) | GI50 (Hs-578T) | GI50 (MCF7) | GI50 (MDA-N) | GI50 (MOLT-4) | GI50 (NCI-H226) | GI50 (NCI-H460) | GI50 (NCI-H522) | GI50 (OVCAR-3) | GI50 (OVCAR-4) | GI50 (OVCAR-5) | GI50 (OVCAR-8) | GI50 (RXF 393) | GI50 (SF-539) | GI50 (T47D) | GI50 (UACC-257) | GI50 (UO-31) | GI50 (M14) | GI50 (SNB-19)
CS(=O)(=O)OCC1CN(S(C)(=O)=O)c2cc(O)ccc21 (stereo not given) | 2.19 µM (inactive) | 2.81 µM (inactive) | 3.52 µM (inactive) | 1.53 µM (inactive) | 1.91 µM (inactive) | 1.22 µM (inactive) | 3.33 µM (inactive) | 2.96 µM (inactive) | 1.11 µM (active) | 2.82 µM (inactive) | 2.67 µM (inactive) | 2.84 µM (inactive) | 2.67 µM (inactive) | 1.19 µM (inactive) | 2.42 µM (inactive) | 0.498 µM (active) | 2.68 µM (inactive) | 3.26 µM (inactive) |  | 
O=C(NNS(=O)(=O)c1ccccc1)c1cccnc1 | > 100 µM (inactive) | > 100 µM (inactive) | > 100 µM (inactive) | > 100 µM (inactive) | > 100 µM (inactive) | > 100 µM (inactive) | > 100 µM (inactive) | > 100 µM (inactive) | > 100 µM (inactive) | > 100 µM (inactive) | > 100 µM (inactive) | > 100 µM (inactive) | > 100 µM (inactive) | > 100 µM (inactive) | > 100 µM (inactive) | > 100 µM (inactive) | > 100 µM (inactive) | > 100 µM (inactive) | > 100 µM (inactive) | > 100 µM (inactive)
COc1cc(C2c3cc4c(cc3OC(NNC(N)=O)C2C)OCO4)cc(OC)c1OC (stereo not given) | 2.03 µM (inactive) | 0.145 µM (active) | 0.125 µM (active) | 0.136 µM (active) | 0.0362 µM (active) | 0.235 µM (active) | 0.205 µM (active) | 0.179 µM (active) | 0.104 µM (active) | 0.0902 µM (active) | 11.8 µM (inactive) |  | 0.356 µM (active) | 0.525 µM (active) | 0.0689 µM (active) | > 66.4 µM (inactive) | 0.603 µM (active) | 1.07 µM (active) | 0.115 µM (active) | 0.452 µM (active)
O=[N+]([O-])c1cccnc1NCC1(CO)CC(Cc2ccccc2)C1 (stereo not given) | > 100 µM (inactive) | > 100 µM (inactive) | > 100 µM (inactive) | > 100 µM (inactive) | > 100 µM (inactive) | > 100 µM (inactive) | 80.4 µM (inactive) | > 100 µM (inactive) | > 100 µM (inactive) | > 100 µM (inactive) | > 100 µM (inactive) | > 100 µM (inactive) | > 100 µM (inactive) | > 100 µM (inactive) | > 100 µM (inactive) | > 100 µM (inactive) | > 100 µM (inactive) | 74 µM (inactive) |  | 
O=C(CC(C(=O)c1cccs1)c1ccc2c(c1)OCO2)c1ccccc1 (stereo not given) | > 100 µM (inactive) | > 100 µM (inactive) | > 100 µM (inactive) | > 100 µM (inactive) | > 100 µM (inactive) |  | > 100 µM (inactive) | 46.7 µM (inactive) | > 100 µM (inactive) | > 100 µM (inactive) | > 100 µM (inactive) |  | > 100 µM (inactive) | > 100 µM (inactive) | > 100 µM (inactive) | 52.7 µM (inactive) | > 100 µM (inactive) | > 100 µM (inactive) | 73.8 µM (inactive) | > 100 µM (inactive)
COc1ccc(C(=O)/C=C/c2cccnc2)cc1OC | 6.18 µM (inactive) | 4.1 µM (inactive) | 14.6 µM (inactive) | 3.27 µM (inactive) | 12.4 µM (inactive) | 3.33 µM (inactive) | 12.1 µM (inactive) |  | 1.83 µM (inactive) | 3.4 µM (inactive) | 12 µM (inactive) | 12.1 µM (inactive) | 5.81 µM (inactive) | 5.81 µM (inactive) | 2.73 µM (inactive) | 8.45 µM (inactive) | 15.6 µM (inactive) | 13.5 µM (inactive) | 13.4 µM (inactive) | 14.5 µM (inactive)
C[C@]12CC/C(=N\O)C=C1CC[C@@H]1[C@@H]2CC[C@]2(C)C(=N/O)/C(=C/c3ccc([N+](=O)[O-])cc3)C[C@@H]12 | 3.05 µM (inactive) | 4.94 µM (inactive) | 3.5 µM (inactive) | 3.59 µM (inactive) | 4.03 µM (inactive) | 2.55 µM (inactive) | 12.9 µM (inactive) | 44.8 µM (inactive) | 2.59 µM (inactive) | 2.61 µM (inactive) | 4.73 µM (inactive) |  |  | 59.6 µM (inactive) | 10.4 µM (inactive) | 1.05 µM (active) | 4.66 µM (inactive) | 2.67 µM (inactive) | 4.05 µM (inactive) | 7.5 µM (inactive)
CC(C)OP(=O)(CN(C)/C(F)=N\C(F)(F)F)OC(C)C | > 100 µM (inactive) | > 100 µM (inactive) | > 100 µM (inactive) | > 100 µM (inactive) | > 100 µM (inactive) | > 100 µM (inactive) | > 100 µM (inactive) | > 100 µM (inactive) | 8.2 µM (inactive) | > 100 µM (inactive) |  | > 100 µM (inactive) | > 100 µM (inactive) | > 100 µM (inactive) | > 100 µM (inactive) | > 100 µM (inactive) | > 100 µM (inactive) | > 100 µM (inactive) | > 100 µM (inactive) | > 100 µM (inactive)
COc1ccc2c(c1)CCCN1Cc3ccccc3CC21 (stereo not given) | > 100 µM (inactive) | 32.7 µM (inactive) | > 100 µM (inactive) | > 100 µM (inactive) | 38.2 µM (inactive) | 54.2 µM (inactive) | 31.5 µM (inactive) | 76 µM (inactive) | > 100 µM (inactive) | 52.7 µM (inactive) | > 100 µM (inactive) | 78.2 µM (inactive) | > 100 µM (inactive) | 48.3 µM (inactive) | 92.7 µM (inactive) | 33.7 µM (inactive) | 91.2 µM (inactive) | 44.7 µM (inactive) | 39.5 µM (inactive) | 67.1 µM (inactive)
N#CCCCC[N+]12CN3CN(CN(C3)C1)C2 | > 100 µM (inactive) | > 100 µM (inactive) | > 100 µM (inactive) | 45.7 µM (inactive) | > 100 µM (inactive) | > 100 µM (inactive) | > 100 µM (inactive) | > 100 µM (inactive) | > 100 µM (inactive) | > 100 µM (inactive) | > 100 µM (inactive) | > 100 µM (inactive) | > 100 µM (inactive) | > 100 µM (inactive) | 22.6 µM (inactive) | > 100 µM (inactive) | > 100 µM (inactive) | > 100 µM (inactive) | > 100 µM (inactive) | > 100 µM (inactive)
CC1=NC(=O)C(C)(c2ccccc2)N1CCc1ccccc1 (stereo not given) | > 100 µM (inactive) | 26.5 µM (inactive) | > 100 µM (inactive) | 55.1 µM (inactive) | 36.3 µM (inactive) | 15.9 µM (inactive) | 42.7 µM (inactive) |  | > 100 µM (inactive) | 11.1 µM (inactive) | 25.6 µM (inactive) | > 100 µM (inactive) | > 100 µM (inactive) | 24.7 µM (inactive) | 85.3 µM (inactive) | 22.3 µM (inactive) | 72.9 µM (inactive) | > 100 µM (inactive) | > 100 µM (inactive) | > 100 µM (inactive)
COc1ccc(OC)c2c(Nc3ccc(S(=O)(=O)O)c4cc(S(=O)(=O)O)cc(S(=O)(=O)O)c34)cc(C)nc12 | > 100 µM (inactive) | > 100 µM (inactive) | > 100 µM (inactive) | > 100 µM (inactive) | > 100 µM (inactive) | > 100 µM (inactive) | > 100 µM (inactive) | > 100 µM (inactive) | > 100 µM (inactive) | > 100 µM (inactive) | > 100 µM (inactive) | > 100 µM (inactive) | > 100 µM (inactive) | > 100 µM (inactive) | > 100 µM (inactive) | > 100 µM (inactive) | > 100 µM (inactive) | > 100 µM (inactive) | > 100 µM (inactive) | 
COc1cc(-c2oc3c(OC)cc(OC)c(O)c3c(=O)c2OC)cc(OC)c1OC | 5.32 µM (inactive) | > 100 µM (inactive) | 2.93 µM (inactive) | 97.1 µM (inactive) | > 100 µM (inactive) | > 100 µM (inactive) | > 100 µM (inactive) | 4.47 µM (inactive) | 3.38 µM (inactive) | 4.79 µM (inactive) | 2.23 µM (inactive) | > 100 µM (inactive) | 5.21 µM (inactive) | 8.28 µM (inactive) | 8.57 µM (inactive) | 3.76 µM (inactive) |  | 33 µM (inactive) | > 100 µM (inactive) | 3.82 µM (inactive)
CC(C)(C)OC(=O)CC(NC(=O)OC(C)(C)C)C(=O)NC(CCCCNC(=O)OCc1ccccc1)C(=O)NC(C)(C)C(=O)NCCC(=O)OCc1ccccc1 (stereo not given) (Boc-D(OtBu)K(Cbz)[Aib][βAla]-OBn; configuration not given here) | > 100 µM (inactive) | > 100 µM (inactive) | > 100 µM (inactive) | > 100 µM (inactive) | > 100 µM (inactive) | > 100 µM (inactive) | > 100 µM (inactive) | > 100 µM (inactive) | > 100 µM (inactive) | > 100 µM (inactive) | > 100 µM (inactive) | > 100 µM (inactive) | > 100 µM (inactive) | > 100 µM (inactive) | > 100 µM (inactive) | > 100 µM (inactive) |  | > 100 µM (inactive) | > 100 µM (inactive) | > 100 µM (inactive)
